Measurements reported in ChEMBL document CHEMBL3244027, “Syntheses, analgetic activity, and physical dependence capacity of 5-phenyl-6,7-benzomorphan derivatives” (J Med Chem, 1979).
Activity calls are given as the source filed them. The calls are words filed in the database; no cut-off is given here.

Experiments:
[1] = test system: Mus musculus; test: Analgetic activity in sc dosed CF1S mouse assessed as writhing by phenylquinone writhing test; format: functional
[2] = test system: Mus musculus; test: Analgetic activity against CF-1 mouse assessed as increase in reaction time at 320 mg/kg, po by heat stimulus induced tail flick response assay; format: functional, organism-based; design: dose 320 mg/kg
[3] = test system: Mus musculus; test: Analgetic activity in po dosed CF1S mouse assessed as writhing by phenylquinone writhing test; format: functional
[4] = Mus musculus, CF1S, sc, read-out: ED50
[5] = Mus musculus, CF1S, po, read-out: ED50

C[C@@H]1C2Cc3ccc(OS(C)(=O)=O)cc3C1(c1ccccc1)CCN2C (stereo not given in full)
ED50 [1, 4]: 5.3 mg/kg

CN1CCC2(c3ccc(O)cc3)CC1Cc1ccc(O)cc12 (racemic)
Activity [2]: inactive

CCCN1CCC2(c3ccccc3)c3cc(O)ccc3CC1C2C.Cl (stereo in doubt; 173)
ED50 [1]: >100 mg/kg

Oc1ccc(C23CCNC(Cc4ccc(O)cc42)C3)cc1 (racemic)
Activity [2]: inactive

Br.CC1C2Cc3ccc(O)cc3C1(c1ccccc1)CCN2CCC(c1ccccc1)c1ccccc1.O (stereo in doubt; 166)
ED50 [1, 4]: > 100 mg/kg

CC1C2Cc3ccc(O)cc3C1(c1ccccc1)CCN2 (stereo in doubt; 112)
Activity [2]: inactive

CC(C)=CCN1CCC2(c3ccccc3)CC1Cc1ccc(O)cc12 (racemic)
ED50 [1, 4]: 15 mg/kg

CC(C)=CCN1CCC2(c3ccccc3)c3cc(OS(=O)(=O)c4ccc(C)cc4)ccc3CC1C2C (stereo not given)
ED50 [1, 4]: > 100 mg/kg

CC1C2Cc3ccc(O)cc3C1(c1ccccc1)CCN2CCC(c1ccccc1)c1ccccc1 (stereo in doubt; 188)
Activity [2]: inactive

C=CCN1CCC2(c3ccccc3)CC1Cc1ccc(O)cc12 (racemic)
ED50 [1]: >100 mg/kg

CN1CCC2(c3ccccc3)CC1Cc1ccc(O)cc12.Cl (stereo in doubt; 42)
ED50 [1]: 5.6 mg/kg

CC1C2Cc3ccc(O)cc3C1(c1ccccc1)CCN2CCC(C#N)(c1ccccc1)c1ccccc1 (stereo in doubt; 167) [listing 1 of 2 here]
ED50 [3, 5]: > 100 mg/kg
ED50 [1, 4]: 110 mg/kg

CC(C)O.CC1C2Cc3ccc(O)cc3C1(c1ccccc1)CCN2CC1CC1.Cl (stereo in doubt; 170)
ED50 [1, 4]: 100 mg/kg

CC1C2Cc3ccc(OC(=O)c4c(Cl)cccc4Cl)cc3C1(c1ccccc1)CCN2C (stereo not given)
ED50 [1, 4]: > 100 mg/kg

CCCN1CCC2(c3ccccc3)c3cc(O)ccc3CC1C2C.Cl (stereo in doubt; 163)
ED50 [3, 5]: > 100 mg/kg
ED50 [1]: 14 mg/kg

CC1C2Cc3ccc(O)cc3C1(c1ccccc1)CCN2C(=O)C12CC3CC(CC(C3)C1)C2 (stereo not given)
ED50 [1, 4]: > 100 mg/kg

CC(C)=CCN1CCC2(c3ccccc3)c3cc(O)ccc3CC1C2C.Cl (stereo in doubt; 169)
ED50 [1]: 41 mg/kg

CCCCCN1CCC2(c3ccccc3)CC1Cc1ccc(O)cc12.Cl (racemic)
Activity [2]: inactive
ED50 [1, 4]: 23 mg/kg

CC(C)O.CC1C2Cc3ccc(O)cc3C1(c1ccccc1)CCN2CC1CC1.Cl (stereo in doubt; 218)
ED50 [1]: >100 mg/kg

CC1C2Cc3ccc(OC(=O)C(c4ccccc4)c4ccccc4)cc3C1(c1ccccc1)CCN2C(=O)C(c1ccccc1)c1ccccc1.O (stereo not given)
Activity [2]: inactive
ED50 [1, 4]: > 100 mg/kg

Br.Clc1ccc(C23CCN(CCc4ccccc4)C(Cc4ccccc42)C3)cc1 (racemic)
Activity [2]: inactive
ED50 [1, 4]: > 100 mg/kg

CC1C2Cc3ccc(O)cc3C1(c1ccccc1)CCN2CCC(C#N)(c1ccccc1)c1ccccc1 (stereo in doubt; 167) [listing 2 of 2 here]
Activity [2]: inactive

CC1C2Cc3ccc(O)cc3C1(c1ccccc1)CCN2CCC(c1ccccc1)c1ccccc1 (stereo in doubt; 166)
Activity [2]: inactive

Br.CC1C2Cc3ccc(O)cc3C1(c1ccccc1)CCN2CC1COc2ccccc2O1 (stereo not given)
ED50 [3, 5]: > 100 mg/kg
ED50 [1, 4]: 84 mg/kg

CCOC(=O)N1CCC2(c3ccccc3)CC1Cc1ccc(OC(C)=O)cc12 (racemic)
Activity [2]: inactive
ED50 [3, 5]: > 100 mg/kg

CN1CCC2(c3ccccc3)CC1Cc1ccccc12.O=C(O)C(O)C(O)C(=O)O (stereo in doubt; 37)
ED50 [1]: 8 mg/kg

CC1C2Cc3ccc(OC(=O)c4ccc(F)cc4)cc3C1(c1ccccc1)CCN2C (stereo not given)
ED50 [1, 4]: 0.7 mg/kg

CC1C2Cc3ccc(O)cc3C1(c1ccccc1)CCN2CC1CCC1.Cl (stereo in doubt; 171)
ED50 [1]: >100 mg/kg

Cl.Oc1ccc2c(c1)C1(c3ccccc3)CCN(CC3CC3)C(C2)C1 (stereo not given)
ED50 [1, 4]: 15 mg/kg

CC(C)O.Cl.Oc1ccc2c(c1)C1(c3ccccc3)CCN(CC3CC3)C(C2)C1 (stereo in doubt; 144)
ED50 [1]: >33 mg/kg

CC(C)=CCN1CCC2(c3ccccc3)c3cc(OC(=O)c4c(Cl)cccc4Cl)ccc3CC1C2C (stereo not given)
ED50 [1, 4]: > 100 mg/kg

CC(C)=CCN1CCC2(c3ccccc3)c3cc(OC(=O)c4ccccc4)ccc3CC1C2C (stereo not given)
ED50 [1, 4]: > 100 mg/kg

CC1C2Cc3ccc(O)cc3C1(c1ccccc1)CCN2CC1CCC1.Cl (stereo in doubt; 219)
ED50 [3, 5]: 300 mg/kg
ED50 [1]: 28 mg/kg

CC1C2Cc3ccc(O)cc3C1(c1ccccc1)CCN2CC12CC3CC(CC(C3)C1)C2.Cl (stereo not given)
Activity [2]: inactive
ED50 [3, 5]: > 100 mg/kg

CC(C)O.Oc1ccc2c(c1)C1(c3ccccc3)CCNC(C2)C1 (stereo not given)
ED50 [1, 4]: > 100 mg/kg

C=CCN1CCC2(c3ccccc3)CC1Cc1ccc(O)cc12 (stereo in doubt; 146)
Activity [2]: inactive

CC1C2Cc3ccc(OC(=O)c4ccccc4)cc3C1(c1ccccc1)CCN2C (stereo not given)
ED50 [1, 4]: 0.5 mg/kg

Br.Oc1ccc2c(c1)C1(c3ccccc3)CCN(CCN3CCOCC3)C(C2)C1 (racemic)
Activity [2]: inactive
ED50 [1, 4]: > 100 mg/kg

CC(C)O.Cl.Oc1ccc2c(c1)C1(c3ccccc3)CCN(CC3CC3)C(C2)C1 (racemic)
ED50 [3, 5]: 107 mg/kg
ED50 [1, 4]: 33 mg/kg

CC1C2Cc3ccc(O)cc3C1(c1ccccc1)CCN2CC1CCC1.CS(=O)(=O)O (racemic)
ED50 [3, 5]: > 100 mg/kg

Cl.Oc1ccc2c(c1)C1(c3ccccc3)CCN(CC3CCC3)C(C2)C1 (stereo in doubt; 145)
ED50 [3]: 34 mg/kg
ED50 [1]: 2.8 mg/kg

Cl.Oc1ccc2c(c1)C1(c3ccccc3)CCN(CC3CCC3)C(C2)C1 (racemic)
ED50 [3]: 124 mg/kg
ED50 [1]: 6.2 mg/kg
